From PubChem BioAssay (NCI)
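Growth conditions: 96-well plates. Treatment: test compound, 48 hours, 5 concentrations. Analysis: linear interpolation between bracketing concentrations; unreached endpoints set to highest concentration. TGI: total growth inhibition.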

Legend:
Assay in all cases: NCI tumour cell line growth inhibition, 48 h
[1] = test system: P388/ADR leukemia
[2] = test system: HOP-18 NSCLC
[3] = test system: SN12K1 renal
[4] = test system: DLD-1 colon
[5] = test system: DMS 273 small cell lung
[6] = test system: SNB-78 CNS
[7] = test system: XF 498 CNS
[8] = test system: P388 leukemia
[9] = test system: M19-MEL melanoma
[10] = test system: LXFL 529 NSCLC
[11] = test system: RXF-631 renal

SMILES	TGI [1] [µM]	TGI [2] [µM]	TGI [3] [µM]	TGI [4] [µM]	TGI [5] [µM]	TGI [6] [µM]	TGI [7] [µM]	TGI [8] [µM]	TGI [9] [µM]	TGI [10] [µM]	TGI [11] [µM]
CCCCOc1ccc(OCCCCCCCCCC[N+](C)(C)C)cc1	17.8	13.7	8.54	21.5	4.25	9.78	4.57	3.06	–	–	–
CN(C)CCNC(=O)c1cc(Cl)cc2ccc(-c3ccccc3)nc12	7.95	12.5	5.81	12.9	7.48	24.9	5.04	–	11.4	–	–
CS(=O)(=O)CSCSSCS(C)(=O)=O	–	> 100	–	> 75.4	> 81.3	> 100	75.6	–	> 100	42.5	> 100
O=S(=O)(O)c1ccc(N=Nc2ccc(N=Nc3ccc(/C=C/c4ccc(N=[N+]([O-])c5ccc(/C=C/c6ccc(N=Nc7ccc(N=Nc8ccc(S(=O)(=O)O)cc8)cc7)cc6S(=O)(=O)O)c(S(=O)(=O)O)c5)cc4S(=O)(=O)O)c(S(=O)(=O)O)c3)cc2)cc1	> 100	> 100	> 100	> 100	> 100	–	> 100	> 100	> 100	–	–
CCOC(=O)C1(C#N)C(c2ccccc2)CC(O)(c2ccc(Cl)cc2)C(C(=O)c2ccc(Cl)cc2)C1c1ccccc1 (stereo not drawn)	–	> 100	–	> 100	> 100	> 100	> 100	–	> 100	> 100	–
CSc1cc(=O)n2c3ccccc3c3ccnc1c32	> 100	98.2	> 100	> 100	> 100	> 100	–	> 100	> 100	–	–
COC(=O)C1=C(C(=O)OC)SC(=CC#CC=C2SC(C(=O)OC)=C(C(=O)OC)S2)S1	–	45.9	–	> 54	38.4	48.6	19.1	–	> 100	> 57.4	–
NCCCCNCCCNC(=O)c1nc(-c2nc(CCN)sc2Cl)sc1Cl	–	–	–	> 100	> 100	> 100	> 100	–	> 100	11.1	–
COC(=O)[C@@H]1CCCCC[C@H]2C(CO)=C(C)C(=O)C12 (stereo partly drawn)	–	> 100	–	> 100	> 100	> 100	> 100	–	> 100	> 100	–
CCOC(=O)c1s/c(=N\Nc2nc3ccccc3cc2C2OCCO2)n(Cc2ccccc2)c1C	–	> 100	–	> 100	> 100	> 100	> 100	–	> 100	> 100	> 100
CCC1=C(C(C)=O)[C@@H]2CCCCC[C@@H](C(=O)OC)C2C1=O (stereo partly drawn)	–	> 100	–	> 100	> 100	> 100	> 100	–	> 100	> 100	–
CC(C)N1CC2CC(CN(C(=O)c3ccccc3)C2)C1	–	> 100	–	–	> 100	–	> 100	–	> 100	> 100	> 100
